Experimental data published in publication PMC11421016, “Biotransformation and Epithelial Toxicity of Prenylated Phenolics from Licorice Roots (Glycyrrhiza spp.) in 3D Apical-Out Mucus-Producing Human Enteroids” (Journal of Agricultural and Food Chemistry, 2024).
Like-named read-outs stand apart in the source and are kept apart here.

Legend:
[1] = test system: human ileal apical-out enteroids; experiment: Cytotoxicity by LDH leakage assay in apical-out enteroids; assay type: cell-based
Procedure: (§1) Cytotoxicity and effects on cell viability after exposure to glab, licoA, and glycy in apical-out and apical-in enteroids (6.25–500 μg mL^–1) and proliferating Caco-2 cells (3.13–100 μg mL^–1) were determined by LDH leakage (Section 2.6.1) and WST-1 assays (Section 2.6.2), respectively. For this, stock solutions of 50 mg mL^–1 of glab, licoA, and glycy in DMSO were used. […] An overview of the experimental conditions for the exposure experiments with glab, licoA, and glycy is shown in Table S2 (Supporting Information). In brief, apical-out and apical-in enteroids were grown for 7–10 days in OGM (∼200 enteroids per dome), after which the medium was changed to ODM (supplemented with 5 μM DAPT) to initiate enteroid differentiation. To generate apical-out enteroids, MG was removed from apical-in enteroids in OGM at day 7–10, as described in Section 2.3, and suspended in supplemented ODM. After 3 days in ODM, the effects on cytotoxicity and cell viability of glab, licoA, and glycy in apical-out and apical-in enteroids (passages between 3 and 17) were assessed after 4 and 24 h of incubation. For apical-out enteroids in a suspension, enteroids were pelleted by centrifugation (2 min, 200g, RT), after which the ODM was removed and 500 μL of the experimental agent was added. […] Caco-2 cells were grown for 48 h after seeding before experiments (passages 14–19) with proliferating cells and for 21 days after seeding (passages 14–33) with differentiated cells.[17] The medium (DMEM supplemented with FCS) was changed every 2 days. For exposure experiments, Caco-2 cells were incubated with glab, licoA, and glycy in DMEM without FCS, as FCS serves as an exogenous source of LDH.[22]
(§2) Cytotoxic effects of glab, licoA, and glycy were assessed by measuring leakage of intracellular lactate dehydrogenase (LDH) in the supernatant and analyzed using an LDH cytotoxicity detection kit (Roche Applied Science, Almere, The Netherlands), according to the manufacturer’s instructions. The LDH activity in the supernatant was expressed as the percentage of the maximum releasable LDH in enteroids or Caco-2 cells (enteroids or Caco-2 cells treated with 1% (v/v) Triton X-100) and calculated with eq 1. [drawing 1] 1 in which exp. value is the UV absorbance at 492 nm (Tecan Spark or Tecan Infinite 200 Pro, Tecan Group Ltd., Zürich, Switzerland), background control is the medium with corresponding concentration of glab, licoA, or glycy, and high control is the maximum releasable LDH in enteroids or Caco-2 cells. For enteroids, each well was used as its own positive control by taking the total releasable LDH of each well after incubation.

[2] = Cell viability by WST-1 assay in apical-out enteroids; assay type: cell-based, human; settings: human
Procedure: as §1
(§3) Effects on cell viability after stimulation by glab, licoA, and glycy were assessed by measuring cleavage of the tetrazolium salt WST-1 to formazan catalyzed by cellular mitochondrial dehydrogenases and analyzed using a WST-1 cell viability kit (PromoKine, Heidelberg, Germany), according to the manufacturer’s instructions. Cell viability was expressed as the percentage of the control cells (enteroids or Caco-2 cells grown in a medium) and was calculated with eq 2. [drawing 2] 2 in which exp. value is the UV absorbance at 450 nm (Tecan Spark or Tecan Infinite 200 Pro) and low control is the spontaneous cleavage of WST-1 to formazan by mitochondrial dehydrogenases in untreated enteroids or Caco-2 cells.

[3] = test system: human ileal apical-in enteroids; experiment: Cytotoxicity by LDH leakage assay in apical-in enteroids; assay type: cell-based; settings: 4 h, cutoff 25% vs negative control
Procedure: as §1, §2

[4] = test system: human ileal apical-in enteroids; experiment: Cell viability by WST-1 assay in apical-in enteroids; assay type: cell-based; settings: 4 h
Procedure: Cytotoxicity and effects on cell viability after exposure to glab, licoA, and glycy in apical-out and apical-in enteroids (6.25–500 μg mL^–1) and proliferating Caco-2 cells (3.13–100 μg mL^–1) were determined by LDH leakage (Section 2.6.1) and WST-1 assays (Section 2.6.2), respectively. For this, stock solutions of 50 mg mL^–1 of glab, licoA, and glycy in DMSO were used. […] An overview of the experimental conditions for the exposure experiments with glab, licoA, and glycy is shown in Table S2 (Supporting Information). […] After 3 days in ODM, the effects on cytotoxicity and cell viability of glab, licoA, and glycy in apical-out and apical-in enteroids (passages between 3 and 17) were assessed after 4 and 24 h of incubation. […]
as §3, with “[drawing 2] 2 in which exp. value is the UV absorbance at 450 nm (Tecan Spark or Tecan Infinite 200 Pro) and low control is the spontaneous cleavage of WST-1 to formazan by mitochondrial dehydrogenases in untreated enteroids or Caco-2 cells.” left out
For apical-in enteroids, the cleavage of WST-1 to formazan was assessed in the MG. […]

Caco-2 cells = experiment: Cytotoxicity by LDH leakage assay in Caco-2 cells; assay type: cell-based, human; settings: proliferating and differentiated Caco-2 cells (differentiated: ref 17), cutoff 25%
Procedure: The human colon adenocarcinoma cell line (Caco-2) was obtained from the American Type Culture Collection (ATCC; Manassas, VA, USA). Caco-2 cells were cultured in DMEM, in a humidified atmosphere of 5% CO2 at 37 °C until 80–90% confluency was reached. Effects on the cytotoxicity and cell viability (Section 2.6) were assessed in proliferating and differentiated Caco-2 cells. The effects on differentiated Caco-2 cells were recently described in our publication.[17] Proliferating and differentiated Caco-2 cells were seeded into 96-well plates at a density of 15,000 cells per cm^2.
Cytotoxicity and effects on cell viability after exposure to glab, licoA, and glycy in apical-out and apical-in enteroids (6.25–500 μg mL^–1) and proliferating Caco-2 cells (3.13–100 μg mL^–1) were determined by LDH leakage (Section 2.6.1) and WST-1 assays (Section 2.6.2), respectively. For this, stock solutions of 50 mg mL^–1 of glab, licoA, and glycy in DMSO were used. […] After 3 days in ODM, the effects on cytotoxicity and cell viability of glab, licoA, and glycy in apical-out and apical-in enteroids (passages between 3 and 17) were assessed after 4 and 24 h of incubation. […]
as §2, with “[drawing 1]” left out, “For enteroids, each well was used as its own positive control by taking the total releasable LDH of each well after incubation.” left out

[5] = test system: human ileal apical-out enteroids; settings: 12.5 μg mL^–1 (34–39 μM), 4 h exposure
Procedure: Effects on barrier integrity of apical-out enteroids after glab, licoA, and glycy exposure were evaluated with a dextran diffusion assay, adapted from Co et al.[14] […] Enteroids were allowed to settle by gravity (5 min) into a pellet, the FITC-dextran 4 kDa was aspirated, and enteroids were washed with DMEM/F12 (3 min, 250g, RT). Enteroids were suspended in fresh DMEM/F12, and they were imaged with an EVOS FL Auto 2 cell imaging system. Images were analyzed using ImageJ software (version 1.52).

[6] = test system: human apical-out ileal enteroids; experiment: Biotransformation in apical-out ileal enteroids (RP-UHPLC-PDA-MSn); assay type: in vitro ADME; settings: for sulfation (LC-MS analysis): human ileal apical-out and apical-in enteroids; for biotransformation products formed: released on the apical side; for phase I biotransformation products: up to 24 h incubation; for glucuronide concentration released at the apical side: glycy 265 μM at t = 0 h
Procedure: (§4) Biotransformation of glab, licoA, and glycy in apical-out and apical-in enteroids was evaluated after 0, 4, and 24 h of incubation. For this, apical-out enteroids were stimulated with 50 μg mL^–1 (154 μM) glab, or with 100 μg mL^–1 licoA (296 μM), or 100 μg mL^–1 glycy (272 μM), and apical-in enteroids were stimulated with 50 μg mL^–1 glab (154 μM), 50 μg mL^–1 licoA (148 μM), or 50 μg mL^–1 glycy (136 μM). […] For apical-out enteroids, parent compounds and their transformation products were assessed on the enteroids’ apical (facing the medium) and basolateral side (inside the enteroids) and intracellularly. In apical-in enteroids, parent compounds and metabolites were assessed on the basolateral side (facing the medium). For the apical release, apical-out enteroids were pelleted (250g, 3 min, 4 °C), and the supernatant was used for LC-MS analysis, after which the enteroids were washed with PBS. Enteroids in a suspension in fresh PBS were broken up by vigorously pipetting up and down approximately for 20 times, after which enteroids were pelleted and the supernatant was used to determine basolateral release by using LC-MS. Enteroids were washed with PBS, and the enteroids’ cells in fresh PBS were disrupted on ice with a digital sonifier (Branson Ultrasonics Corporation, Danbury, CT, USA) with the following settings: a 5 s pulse, a 10 s pause, an amplitude of 55%, and 12 cycles. Enteroids were pelleted, and the supernatant was used as a measure for intracellular release and measured with LC-MS.
(§5) Samples were separated on a Thermo Vanquish UHPLC system (Thermo Scientific, San Jose, CA, USA) equipped with a pump, a degasser, an autosampler, and a PDA detector, as described elsewhere.[15] Eluents used were (A) LC-MS-grade MQ + 0.1% FA (v/v) and (B) LC-MS-grade ACN + 0.1% FA (v/v). The elution program was started by running isocratically at 1% B for 1.09 min followed by a 1.09–26.16 min linear gradient to 70% B, a 26.16–27.25 min linear gradient to 100% B, and 27.25–32.70 min isocratically at 100% B. The eluent was adjusted to start conditions in 1.09 min followed by equilibration of 5.45 min.
(§6) Mass spectrometric data were acquired using an LTQ Velos Pro linear ion trap mass spectrometer (Thermo Scientific), equipped with a heated ESI probe coupled in-line to the Vanquish UHPLC system, as described elsewhere.[15] Data were processed using Xcalibur 4.1 (Thermo Scientific).
(§7) Quantification of glab, licoA, glycy, and produced metabolites was based on UV absorbance at 280 nm (glab), 340–390 nm (licoA), and 320–370 nm (glycy). For this, a seven-point calibration (0.01–150 μg mL^–1) curve based on external standards of glab, licoA, and glycy (R^2 > 0.999) was used. UV peaks were integrated using the AVALON integration algorithm with the autocalc function (Xcalibur 4.1). Metabolites were quantified as glab, licoA, or glycy equivalents.

[7] = test system: human apical-in ileal enteroids; experiment: Biotransformation in apical-in ileal enteroids (RP-UHPLC-PDA-MSn); assay type: in vitro ADME; settings: for biotransformation products formed: identified at the basolateral side; for phase I metabolites: up to 24 h incubation
Procedure: as §4, §5, §6, §7

[8] = Stability in the medium without enteroids; assay type: physicochemical; settings: after 24 h of incubation
Procedure: as §7

Gram-positive bacteria = test system: Gram-positive bacteria; design: method as in PMID 36377761; settings: against Gram-positive bacteria, cited from earlier work
[9] = test system: mouse jejunal apical-out enteroids; design: method as in PMID 38086658; settings: jejunum, cutoff 25%; cited from earlier work
[10] = test system: mouse jejunal apical-in enteroids; design: method as in PMID 38086658; settings: jejunum, cutoff 25%; cited from earlier work
[11] = test system: mouse jejunal apical-out enteroids; design: method as in PMID 38086658; settings: jejunum, cutoff 25%; cited from earlier work; remark: listed apart in the source
[12] = test system: human CYP enzymes (i.e., CYP3A4); design: method as in PMID 17220245, PMID 28774812, PMID 12019199, PMID 26100226; settings: cited from earlier work
[13] = test system: human ileal apical-out enteroids; experiment: Cell viability by WST-1 assay in apical-out enteroids; assay type: cell-based; settings: 4 h exposure, range 6.25 up to 500 μg mL^–1
Procedure: as §1, §3

Compound	fold higher concentration for significant cytotoxicity in apical-out vs apical-in enteroids ([1]; human)	viability at 4 h, 500 μg mL^–1 [2] [%]	highest nontoxic concentration (LDH) (Caco-2 cells)	epithelial barrier (membrane) integrity [5]	sulfation (LC-MS analysis) [6]	biotransformation products formed [6]	phase I biotransformation products [6]	biotransformation products formed [7]	phase I metabolites [7]	recovery in the medium (without enteroids) [8] [%]	minimum inhibitory concentration (MIC) (Gram-positive bacteria) [μg mL^–1]	minimum inhibitory concentration (MIC) (Gram-positive bacteria; equivalent of 12.5 μg mL^–1) [µM]	inhibition of human CYP enzymes (i.e., CYP3A4) [12]	highest nontoxic concentration (LDH) [3]	further results
CC1(C)C=Cc2c(ccc3c2OC[C@@H](c2ccc(O)cc2O)C3)O1 [glabridin]	3-5 fold	21 ± 14	around 75 μM	did not seem to disrupt	did not reveal sulfation	glucuronide metabolites	No phase I biotransformation products	transformed to their glucuronides	no phase I metabolites were identified	101 ± 2.2	12.5	39	inhibition		viability at 4 h, 771 µM [2]: 29%; highest nontoxic concentration (LDH) ([3]; listed as Glabridin): 100 μg mL^–1; highest nontoxic concentration (LDH) ([3]; listed as glab): around 300 μM; highest nonreducing viability concentration (WST-1) [4]: 100 μg mL^–1; highest noncytotoxic concentration [9]: 250 μg mL^–1; highest noncytotoxic concentration [10]: 75 μg mL^–1; highest nonreducing viability concentration [11]: 50 μg mL^–1
COc1c(CC=C(C)C)c(O)cc2oc(=O)c(-c3ccc(O)cc3O)cc12 [glycycoumarin]	3-5 fold	77 ± 13	around 75 μM	did not seem to disrupt	did not reveal sulfation	glucuronide metabolites	No phase I biotransformation products	transformed to their glucuronides	no phase I metabolites were identified	101 ± 3.0	12.5	34	inhibition	around 300 μM	cytotoxicity (LDH) ([1]; human, 4 h, 500 μg mL^–1): −2 ± 2%
C=CC(C)(C)c1cc(/C=C/C(=O)c2ccc(O)cc2)c(OC)cc1O [licochalcone A]			around 75 μM	did not seem to disrupt	did not reveal sulfation	glucuronide metabolites	No phase I biotransformation products	transformed to their glucuronides	no phase I metabolites were identified	101 ± 3.2	12.5	37	inhibition	around 300 μM	cytotoxicity (LDH) ([1]; 500 μg mL^–1, 4 h exposure, % of maximum releasable LDH): −6 ± 2%; effects on cytotoxicity up to the highest concentrations ([1]; 4 h exposure, up to 500 μg mL^–1, p > 0.05): No significant effects on cytotoxicity; viability at 4 h, 500 μg mL^–1 ([2]; apical-out ileal enteroids, 500 μg mL^–1, 4 h exposure, negative control set at 100%, read-out: cell viability (WST-1)): 77 ± 22%; cell viability (WST-1), slight decrease, not statistically significant [13]: approximately 80%; % biotransformation to glucuronide compared to parent at t = 0 h ([6]; 24 h exposure, 100 μg mL^–1 (licoA, glycy), apical side): comparably low; % biotransformation to glucuronide compared to parent at t = 0 h ([7]; 24 h exposure, 50 μg mL^–1, basolateral side): comparably low
glycycoumarin-glucuronide [glycy-glucuronide]															glucuronide concentration released at the apical side ([6]; after 4 h): ~3 µM; glucuronide concentration released at the apical side ([6]; after 24 h): ~16 µM
